pIC50: −log10 of the molar value. Like-named read-outs stand apart in the source and are kept apart here.
Key:
H460 cells = experiment: Antiproliferation assay (Alamar Blue), H460 cells; format: cell-based
Protocol: To determine the effect of lonidamine and analogs thereof on cell proliferation, the antiproliferative activity of these compounds was tested in a multi-well Alamar Blue based assay (at 2 h and 3 days). Cell growth in the presence and absence of the test compound (compounds 1-22) was compared, as measured by a fluorescence plate reader at excitation 550 nm and emission 590 nm (see Biosource International Inc., Tech Application Notes, Use of Alamar Blue in the measurement of Cell Viability and Toxicity, Determining IC50). H460 cells (ATCC HTB-177 ([…]), 4,000 cells/well/200 μl) and LNCap cells (ATCC CRL-1740, 6,000 cells/well/200 μl) were seeded in a 96 well plate in RPMI medium (Invitrogen Corporation, Carlsbad, Calif.). After 24 hours, these plates were divided into 3 groups—Control group, 2 h treatment group and 3 day treatment group. In the 2 h treatment group, after 2 h the cells were rinsed to remove the test compound and incubated for 3 days, followed by staining with AlamarBlue. The cells in the 3 day treatment group were incubated for 3 days, followed by staining with AlamarBlue. In the Control group, AlamarBlue was added to the plate at (i) day 0 and (ii) day 3 and measured to establish the control reading.

PWR-1E cells = experiment: Antiproliferation assay 3 days, PWR-1E cells (Example 49); format: cell-based; conditions: read-out: PWR1e cell line IC50
Protocol: (§1) To determine the effect of lonidamine analogs thereof on cell proliferation, the antiproliferative activity of these compounds was tested in a multi-well Alamar Blue based assay (at 3 days). Cell growth in the presence and absence of the test compound was compared, as measured by a fluoresence plate reader at excitation 550 nm and emission 590 nm (see Biosource International Inc., Tech Application Notes, Use of Alamar Blue in the measurement of Cell Viability and Toxity, Determining IC50). The following cell lines were tested: PWR-1E cells ((ATCC CRL-11611), 3500 cells/well/200 μl in Keratinocyte SFM medium (Gibco Products, Invitrogen Corporation, Carlsbad, Calif.)); DU-145 cells ((ATCC HTB-81), 4000 cells/well/200 μl in MEM Eagles medium (ATCC, Manassas, Va.)); PC3 cells ((ATCC CRL-1435), 4000 cells/200 μl in Modified HAM's F12 medium (ATCC, Manassas, Va.)); PNt2 cells ((Sigma-Aldrich, 95012613-1 VL), 4000 cells/well/200 μl in RPMI medium (Gibco Products, Invitrogen Corporation, Carlsbad, Calif.), BPH-1 ((DSMZ ACC-143), 4000 cells/well/200 μl in RPMI medium (Gibco Products, Invitrogen Corporation, Carlsbad, Calif), and NCI-H460 cells ((ATCC HTB-177), 4000 cells/well/200 μl in RPMI medium (Gibco Products, Invitrogen Corporation, Carlsbad, Calif.)). The cells were seeded in a 96 well plate in a medium specified above. After 24 hours, these plates were divided into 2 groups—Control group and 3 day treatment group. A test compound was added to each plate in the treatment groups at concentrations of […] as tabulated in Table 1 (in 2 μl 1 of 100% DMSO, final DMSO concentration 1% in all wells). For NCI-H460 cells, test compounds were added to each plate in the treatment groups at concentrations of 600, 300, 100, 30, 10, 3, and 1 μM (in 2 μl of 100% DMSO, final DMSO concentration 1% in all wells). The cells in the 3 day treatment group were incubated for 3 days, followed by staining with AlamarBlue. In the Control group, AlamarBlue was added to the plate at (i) day 0 and (ii) day 3 and measured to establish the control reading. […] For the NCI-H460 cells, the capacity of the cells to proliferate was measured 5 hours after addition of AlamarBlue using the same fluorescence plate reader as stated above.

SH rat prostate = experiment: 5 day systemic administration in male SH rats, prostate; format: in vivo; design: inhibition in vivo: dose or concentration left out as unconfirmed; conditions: for Prostate shrinkage: male SH rats, oral daily for 5 days at 50 mg/ml, day 6; for inhibition in vivo: Rattus norvegicus, po, 144 h, read-out: Prostate shrinkage
Protocol: (§2) The effect of test compounds (lonidamine and lonidamine analogs) on the SH rat prostate was determined as follows. The test compound was orally administered daily for 5 days to male, SH rat, (n=6, 14 weeks old, Charles River Labs) at 50 mg/ml concentrations (as a 0.5% carboxymethylcellulose formulation). The control rats received an equal amount of the vehicle ([…]). Blood samples were collected 2 hours after administration on day 6, for pharmokinetic analysis of the compounds. On day 6 the rats were sacrificed and the entire prostate and the individual lobes (e.g., the ventral, dorso-lateral, and anterior lobes) were removed and weighed to measure absolute weights. Relative weights of prostate and individual lobes were calculated by dividing the absolute weight by the total body weight of the […]. Relative weights of the entire prostate, the dorsal prostate, and the ventral prostate were calculated by dividing the absolute weight by the total weight of the mouse. The histomorphology of the prostate was also analyzed and compared to that of the control or untreated prostate.

testes = experiment: 5 day systemic administration in male SH rats, testis; format: in vivo, rat; design: inhibition in vivo: dose or concentration left out as unconfirmed; conditions: for Testis shrinkage: male SH rats, oral daily for 5 days at 50 mg/ml, day 6; for inhibition in vivo: Rattus norvegicus, po, 144 h, read-out: Testis shrinkage
[1] = 5 day systemic administration in male SH rats, pharmacokinetic blood samples; format: in vivo, rat; conditions: oral daily for 5 days at 50 mg/ml, blood 2 hours after administration
Protocol: as §2

NCI-H460 cells = experiment: Antiproliferation assay 3 days, NCI-H460 cells; format: cell-based; conditions: read-out: NCI-H460 cell line IC50
Protocol: as §1

[2] = 3 day treatment, read-out: GI50 H460 cell 3 days
[3] = read-out: GI50 H460 cell 2 hr, 2 h treatment then 3 days incubation
[4] = Homo sapiens, PWR-1E, 72 h, 3 day treatment
[5] = Homo sapiens, NCI-H460, 72 h, 3 day treatment

| Compound | pIC50 (PWR-1E cells; 3 day treatment) | pIC50 (PWR-1E cells; Homo sapiens, PWR-1E, 72 h) | pIC50 (NCI-H460 cells; Homo sapiens, NCI-H460, 72 h) | other results |
| --- | --- | --- | --- | --- |
| O=C(Nc1ccccn1)c1nn(Cc2ccc(Cl)cc2Cl)c2ccccc12 [Compound 7] | – | – | – | GI50 (H460 cells; [2]): 20 µM; GI50 (H460 cells; [3]): > 400 µM |
| O=C(Nc1ccc(F)c(F)c1)c1nn(Cc2ccc(Cl)cc2Cl)c2ccccc12 [Compound 8] | < 5.52 | – | – | GI50 (H460 cells; [2]): 316 µM; GI50 (H460 cells; [3]): > 400 µM |
| O=C(Nc1nccs1)c1nn(Cc2ccc(Cl)cc2Cl)c2ccccc12 [Compound 9] | < 4.00 | – | – | GI50 (H460 cells; [2]): > 400 µM; GI50 (H460 cells; [3]): > 400 µM |
| O=C(NCCO)c1nn(Cc2ccc(Cl)cc2Cl)c2ccccc12 [Compound 10] | 4.85 | – | – | GI50 (H460 cells; [2]): 50 µM; GI50 (H460 cells; [3]): 78 µM |
| O=C(OC1O[C@H](C(=O)O)[C@@H](O)[C@H](O)[C@H]1O)c1nn(Cc2ccc(Cl)cc2Cl)c2ccccc12 (some centres unmarked) [Compound 15] | – | 4.10 | – | GI50 (H460 cells; Homo sapiens, NCI-H460, 72 h, 3 day treatment, read-out: GI50 H460 cell 3 days): 316 µM; GI50 (H460 cells; Homo sapiens, NCI-H460, read-out: GI50 H460 cell 2 hr, 2 h treatment then 3 days incubation): > 400 µM |
| O=C(O)c1nn(Cc2ccc(-c3ccccc3)cc2)c2ccccc12 [Compound 22] | 4.60 | – | – | GI50 (H460 cells; [2]): 158 µM; GI50 (H460 cells; [3]): > 400 µM |
| NC(=O)c1nn(Cc2c(Cl)cccc2Cl)c2ccccc12 [Compound 25] | – | < 4.00 | – | – |
| O=C(O)c1nn(Cc2ccccc2Cl)c2ccccc12 [Compound 27] | 4.52 | – | – | – |
| CNC(=O)c1nn(Cc2c(Cl)cccc2Cl)c2ccccc12 [Compound 37] | 4.44 | – | – | – |
| O=C(NCCN1CCOCC1)c1nn(Cc2c(Cl)cccc2Cl)c2ccccc12 [Compound 43] | 4.35 | – | – | – |
| NNC(=O)c1nn(Cc2c(Cl)cccc2Cl)c2ccccc12 [Compound 44] | < 5.00 | – | – | – |
| O=C(NC1CC1)c1nn(Cc2c(Cl)cccc2Cl)c2ccccc12 [Compound 46] | < 4.52 | – | – | – |
| O=C(NO)c1nn(Cc2ccc(Cl)cc2Cl)c2ccc(F)cc12 [Compound 47] | 5.25 | – | – | – |
| O=C(c1nn(Cc2ccc(Cl)cc2Cl)c2ccccc12)N1CCOCC1 [Compound 48] | < 5.00 | – | – | Prostate shrinkage (SH rat prostate): 3.3%; Testis shrinkage (testes): 4.3% |
| CN(C)C(=O)c1nn(Cc2ccc(Cl)cc2Cl)c2ccccc12 [Compound 49] | < 4.00 | – | – | – |
| CC(C)NC(=O)c1nn(Cc2ccccc2)c2ccccc12 [Compound 50] | 4.64 | – | – | – |
| O=C(Nc1cccnc1)c1nn(Cc2ccc(Cl)cc2Cl)c2ccccc12 [Compound 51] | – | – | – | Prostate shrinkage (SH rat prostate): 8.7%; PK [1]: 0.45 µg/mL; Testis shrinkage (testes): 2.2% |
| Cc1ccc2c(c1)c(C(=O)NO)nn2Cc1ccc(Cl)cc1Cl [Compound 52] | 6.47 | – | – | – |
| CONC(=O)c1nn(Cc2ccc(Cl)cc2Cl)c2ccccc12 [Compound 53] | – | – | – | Prostate shrinkage (SH rat prostate): 6.9%; PK [1]: 1 µg/mL; Testis shrinkage (testes): 9.2% |
| CONC(=O)c1nn(Cc2ccc(Cl)cc2Cl)c2ccc(C)cc12 [Compound 57] | 4.41 | – | – | – |
| O=Cc1nn(Cc2ccc(Cl)cc2Cl)c2ccccc12 [Compound 61] | – | 5.82 | – | – |
| CC(c1ccc(Cl)cc1Cl)n1nc(C(=O)O)c2ccccc21 (centres unmarked) [Compound 67] | – | 4.68 | 3.83 | inhibition in vivo (SH rat prostate): 18.2%; inhibition in vivo (testes): 34.9% |
| O=C(O)c1nn(Cc2cc3c(cc2Cl)OCO3)c2ccccc12 [Compound 69] | – | 3.84 | – | – |
| Cc1noc(C)c1Cn1nc(C(=O)O)c2ccccc21 [Compound 71] | – | < 3.52 | – | – |

| Compound | pIC50 (PWR-1E cells; 3 day treatment) | pIC50 (PWR-1E cells; Homo sapiens, PWR-1E, 72 h) | pIC50 (NCI-H460 cells; Homo sapiens, NCI-H460, 72 h) | other results |
| --- | --- | --- | --- | --- |
| COc1ccccc1Cn1nc(C(=O)O)c2ccccc21 [Compound 72] | – | 3.61 | – | – |
| O=C(O)c1nn(Cc2ccc(Cl)nc2)c2ccccc12 [Compound 73] | – | < 3.52 | – | – |
| O=C(O)c1nn(Cc2ccc3c(c2)OCO3)c2ccccc12 [Compound 74] | – | < 4.00 | 3.54 | – |
| Cc1cc(Cn2nc(C(=O)O)c3ccccc32)n(C)n1 [Compound 75] | – | < 3.52 | < 3.74 | – |
| O=C(O)c1nn(Cc2ccccc2O)c2ccccc12 [Compound 76] | – | 3.54 | – | – |
| O=C(O)c1nn(Cc2ccc(O)cc2)c2ccccc12 [Compound 77] | – | < 4.00 | – | – |
| O=C(O)c1cn(Cc2ccc(Cl)cc2Cl)c2ccccc12 [Compound 78] | – | 4.66 | 4.05 | inhibition in vivo (SH rat prostate): 10.1%; inhibition in vivo (testes): 5.7% |
| O=C(O)c1nn(Cc2ccc(Cl)c(Cl)c2)c2ccccc12 [Compound 82] | – | 4.44 | 3.89 | inhibition in vivo (SH rat prostate): 5%; inhibition in vivo (testes): -1.1% |
| O=C(O)c1nn(Cc2cc(Cl)ccc2Cl)c2ccccc12 [Compound 83] | – | 4.42 | 3.90 | inhibition in vivo (SH rat prostate): 31.7%; inhibition in vivo (testes): 48% |
| O=C(O)c1nn(Cc2ccccn2)c2ccccc12 [Compound 84] | – | – | < 3.22 | – |
| O=C(O)c1nn(Cc2cccnc2)c2ccccc12 [Compound 85] | – | – | < 3.22 | – |
| O=C(O)c1nn(Cc2ccncc2)c2ccccc12 [Compound 86] | – | – | < 3.22 | – |
| O=C(O)c1nn(Cc2cnc(Cl)c(Cl)c2)c2ccccc12 [Compound 87] | – | – | 3.49 | – |
| O=Cc1nc(Cc2ccc(Cl)cc2Cl)n2ccccc12 [Compound 88] | – | – | – | pIC50 (PWR-1E cells; [4]): 4.92; pIC50 (NCI-H460 cells; [5]): 4.32 |
| O=C(O)c1nc(Cc2ccc(Cl)cc2Cl)n2ccccc12 [Compound 89] | 5.00 | – | – | pIC50 (NCI-H460 cells; 3 day treatment): 4.39 |
| OCc1nc(Cc2ccc(Cl)cc2Cl)n2ccccc12 [Compound 92] | – | – | – | pIC50 (PWR-1E cells; [4]): 4.96; pIC50 (NCI-H460 cells; [5]): 4.37 |
| O=C(O)c1nn(Cc2ccc(Cl)nc2)c2ccccc12 [Compound 94] | – | – | < 3.22 | – |
| N#Cc1cc(Cl)ccc1Cn1nc(C(=O)O)c2ccccc21 [Compound 95] | – | 4.07 | 3.56 | – |
| O=C(O)c1nn(C(=O)c2ccc(Cl)cc2Cl)c2ccccc12 [Compound 98] | – | – | – | pIC50 (PWR-1E cells; [4]): 5.40 |
| O=C(O)c1cn(Cc2cc(Cl)ccc2Cl)c2ccccc12 [Compound 100] | – | – | 3.90 | – |
| O=C(O)c1nn(Cc2cc(Cl)ccc2F)c2ccccc12 [Compound 103] | – | 3.88 | 3.66 | – |
| O=C(O)c1nn(S(=O)(=O)c2ccc(Cl)cc2Cl)c2ccccc12 [Compound 104] | 4.72 | – | – | pIC50 (NCI-H460 cells; 3 day treatment): 3.71 |
| O=C(O)c1c2ccccc2nn1S(=O)(=O)c1ccc(Cl)cc1Cl [Compound 105] | 4.68 | – | – | pIC50 (NCI-H460 cells; 3 day treatment): 3.74 |
| O=C(O)c1nn(Cc2cc(C(F)(F)F)ccc2Cl)c2ccccc12 [Compound 106] | – | – | 5.40 | – |

Source: patent publication US20070015771A1, “Lonidamine analogs” (Threshold pharmaceuticals, Inc., priority 2004, published 2007)
